Data reported in publication PMC6273913, “New α-Methylene-γ-Butyrolactone Derivatives as Potential Fungicidal Agents: Design, Synthesis and Antifungal Activities” (Molecules, 2016).
Like-named read-outs stand apart in the source and are kept apart here.

Key:
C. lagenarium = assay: Spore germination assay, fungicidal activity against C. lagenarium; assay type: cell-based, Colletotrichum lagenarium; conditions: Colletotrichum orbiculare
Description: (§1) The fungal pathogens C. lagenarium and B. cinerea was provided by the Agricultural Culture Collection of China (Yangling, Shaanxi, China). C. lagenarium was cultured for 2 weeks at 25 ± 1 °C on potato dextrose agar (PDA) while B. cinerea was cultured at 20 °C on the same medium after being retrieved from the storage tube. Plates were flooded with sterile distilled water, and then conidia were scraped with a glass rod. Mycelial debris was removed by filtration. The spores were harvested and suspended in sterile distilled water containing 0.1% (v/v) Tween 20. The concentration of the spore suspension was adjusted to 1.0 × 10^6 spores/mL with sterilized distilled water following.
(§2) The tested samples (10.0 mg) dissolved in acetone (0.1 mL) were diluted with sterile distilled water to prepare 10.0 mL stock solution, which was further diluted to prepare test solutions in which the final concentration of acetone was <1% (v/v). A series of concentrations of tested samples and one control (1% acetone with sterile distilled water) were separately tested for spore germination of C. lagenarium or B. cinerea. The samples were inoculated with spore suspension of C. lagenarium or B. cinerea containing 1.0 × 10^6 spores/mL. Aliquots of 10 μL of prepared spore suspension were placed on separate glass slides in triplicate. Slides containing the spores were incubated in a moisture chamber at 25 °C for 6~8 h. Each slide was then observed under the microscope for spore germination. Spores were considered to have germinated if the length of the germ tube was at least half the length of the spore. Afterward, spore germination was stopped by applying a drop of lactophenol-cotton blue to the inoculation sites on plates. The numbers of generated spores were counted under a microscope (Olympus BX61, Tokyo, Japan), and the percentage of germinated spores was calculated. Chlorothalonil was used as the positive control.

B. cinerea = assay: Spore germination assay, fungicidal activity against B. cinerea; assay type: cell-based, Botrytis cinerea; conditions: Botrytis cinerea, in vitro, n = 3
Description: as §1, §2

[1] = Table 1, from IC50 in μM, read-out: pIC50, C. lagenarium (converted)
[2] = Table 2, fungicidal activity against C. lagenarium used for QSAR, read-out: pIC50 (converted)
[3] = Table 4, experimental, C. lagenarium, read-out: Exp. pIC50 (converted)
[4] = in vitro, spore germination, n = 3, read-out: IC50, C. lagenarium

Question: Which results are given for `C=C1CC(c2cccc(OC(=O)c3ccc(Cl)cc3)c2)OC1=O` (stereo not shown) [Compound 6b, 4-[3-(4-Chlorobenzoyloxy)phenyl]-2-methylenebutyrolactone]?
Answer: IC50 (C. lagenarium; [1]): 9.25 µM; IC50 (C. lagenarium; [2]): 9.25 µM; IC50 (C. lagenarium; [3]): 9.25 µM; IC50 (C. lagenarium; [4]): 9.24 µM; IC50 (B. cinerea): 29.1 µM; melting point: 209.8 to 210.5 °C

Question: For `C=C1CC(c2ccc(OC(=O)c3ccc(C)cc3)cc2)OC1=O` (stereo not shown) [Compound 4l, 4-[4-(4-Methylbenzoyloxy)phenyl]-2-methylenebutyrolactone], which IC50 (C. lagenarium; [1]) is on record?
Answer: The IC50 was 189 µM.

Question: What about the IC50 (C. lagenarium; [2]) of the same compound?
Answer: The IC50 was 189 µM.

Question: What about the IC50 (C. lagenarium; [3]) of the same compound?
Answer: Its IC50 is 189 µM.

Question: And the IC50 (C. lagenarium; [4])?
Answer: Its IC50 is 189 µM.

Question: What about the IC50 (B. cinerea) of the same compound?
Answer: Its IC50 is 209 µM.

Question: And the melting point?
Answer: Its melting point is 184.5 to 185.1 °C.

Question: For `C=C1CC(c2ccccc2OC(=O)c2ccccc2C)OC1=O` (stereo not shown) [Compound 5h, 4-[2-(2-Methylbenzoyloxy)phenyl]-2-methylenebutyrolactone], which IC50 (C. lagenarium; [1]) is on record?
Answer: Its IC50 is 216 µM.

Question: What about the IC50 (C. lagenarium; [2]) of the same compound?
Answer: Its IC50 is 216 µM.

Question: And the IC50 (C. lagenarium; [3])?
Answer: Its IC50 is 216 µM.

Question: And the IC50 (C. lagenarium; [4])?
Answer: The IC50 was 216 µM.

Question: And the IC50 (B. cinerea)?
Answer: Its IC50 is 229 µM.

Question: What about the melting point of the same compound?
Answer: Its melting point is 172.8 to 173.4 °C.

Question: For `C=C1CC(c2cccc(OC(=O)c3cccc(OC)c3)c2)OC1=O` (stereo not shown) [Compound 6k, 4-[3-(3-Methoxybenzoyloxy)phenyl]-2-methylenebutyrolactone], which IC50 (C. lagenarium; [1]) is on record?
Answer: Its IC50 is 136 µM.

Question: And the IC50 (C. lagenarium; [2])?
Answer: Its IC50 is 136 µM.

Question: What about the IC50 (C. lagenarium; [3]) of the same compound?
Answer: The IC50 was 136 µM.

Question: And the IC50 (C. lagenarium; [4])?
Answer: The IC50 was 136 µM.

Question: And the IC50 (B. cinerea)?
Answer: The IC50 was 161 µM.

Question: And the melting point?
Answer: Its melting point is 183.7 to 184.2 °C.

Question: With `C=C1CC(c2ccc(OC(=O)c3ccccc3C)cc2)OC1=O` (stereo not shown) [Compound 4j, 4-[4-(2-Methylbenzoyloxy)phenyl]-2-methylenebutyrolactone] as the compound, how does the IC50 (C. lagenarium; [1]) read?
Answer: The IC50 was 192 µM.

Question: And the IC50 (C. lagenarium; [2])?
Answer: The IC50 was 192 µM.

Question: What about the IC50 (C. lagenarium; [3]) of the same compound?
Answer: Its IC50 is 192 µM.

Question: What about the IC50 (C. lagenarium; [4]) of the same compound?
Answer: Its IC50 is 192 µM.

Question: What about the IC50 (B. cinerea) of the same compound?
Answer: Its IC50 is 199 µM.

Question: What about the melting point of the same compound?
Answer: The melting point was 189.6 to 190.1 °C.

Question: With `C=C1CC(c2cccc(OC(=O)c3ccccc3OC)c2)OC1=O` (stereo not shown) [Compound 6j, 4-[3-(2-Methoxylbenzoyloxy)phenyl]-2-methylenebutyrolactone] as the compound, how does the IC50 (C. lagenarium; [1]) read?
Answer: Its IC50 is 162 µM.

Question: And the IC50 (C. lagenarium; [2])?
Answer: The IC50 was 162 µM.

Question: And the IC50 (C. lagenarium; [3])?
Answer: The IC50 was 162 µM.

Question: And the IC50 (C. lagenarium; [4])?
Answer: The IC50 was 162 µM.

Question: And the IC50 (B. cinerea)?
Answer: The IC50 was 196 µM.

Question: And the melting point?
Answer: Its melting point is 172.3 to 172.8 °C.

Question: What does the source list for `C=C1CC(c2ccccc2OC(=O)c2ccc(C)cc2)OC1=O` (stereo not shown) [Compound 5j, 4-[2-(4-Methylbenzoyloxy)phenyl]-2-methylenebutyrolactone]?
Answer: IC50 (C. lagenarium; [1]): 207 µM; IC50 (C. lagenarium; [2]): 207 µM; IC50 (C. lagenarium; [3]): 207 µM; IC50 (C. lagenarium; [4]): 208 µM; IC50 (B. cinerea): 259 µM; melting point: 181.2 to 181.6 °C

Question: What does the source list for `C=C1CC(c2ccccc2OCCCC)OC1=O` (stereo not shown) [Compound 5o, 4-(2-Butoxyphenyl)-2-methylenebutyrolactone]?
Answer: IC50 (C. lagenarium; [1]): 414 µM; IC50 (C. lagenarium; [2]): 414 µM; IC50 (C. lagenarium; [3]): 414 µM; IC50 (C. lagenarium; [4]): 414 µM; IC50 (B. cinerea): 457 µM

Question: With `N#Cc1c(Cl)c(Cl)c(Cl)c(C#N)c1Cl` [Chlorothalonil, reference compound] as the compound, how does the IC50 (C. lagenarium; [1]) read?
Answer: The IC50 was 4.21 µM.

Question: What about the IC50 (C. lagenarium; [4]) of the same compound?
Answer: Its IC50 is 4.21 µM.

Question: And the IC50 (B. cinerea)?
Answer: Its IC50 is 8.31 µM.

Question: Which IC50 (C. lagenarium; [1]) does the source give for `C=C1CC(c2ccc(OC(=O)c3ccccc3Cl)cc2)OC1=O` (stereo not shown) [Compound 4a, 4-[4-(2-Chlorobenzoyloxy)phenyl]-2-methylenebutyrolactone] here?
Answer: Its IC50 is 14 µM.

Question: And the IC50 (C. lagenarium; [2])?
Answer: Its IC50 is 14 µM.

Question: And the IC50 (C. lagenarium; [3])?
Answer: Its IC50 is 14 µM.

Question: What about the IC50 (C. lagenarium; [4]) of the same compound?
Answer: The IC50 was 14 µM.

Question: And the IC50 (B. cinerea)?
Answer: Its IC50 is 29.8 µM.

Question: What about the melting point of the same compound?
Answer: Its melting point is 187.2 to 187.9 °C.

Question: What does the source list for `C=C1CC(c2ccc(OC(=O)c3ccccc3Br)cc2)OC1=O` (stereo not shown) [Compound 4d, 4-[4-(2-Bromobenzoyloxy)phenyl]-2-methylenebutyrolactone]?
Answer: IC50 (C. lagenarium; [1]): 15.6 µM; IC50 (C. lagenarium; [2]): 15.6 µM; IC50 (C. lagenarium; [3]): 15.6 µM; IC50 (C. lagenarium; [4]): 15.6 µM; IC50 (B. cinerea): 24.1 µM; melting point: 174.5 to 174.9 °C

Question: For `C=C1CC(c2ccc(OC(=O)c3ccccc3OC)cc2)OC1=O` (stereo not shown) [Compound 4m, 4-[4-(2-Methoxylbenzoyloxy)phenyl]-2-methylenebutyrolactone], which IC50 (C. lagenarium; [1]) is on record?
Answer: The IC50 was 239 µM.

Question: And the IC50 (C. lagenarium; [2])?
Answer: Its IC50 is 239 µM.

Question: And the IC50 (C. lagenarium; [3])?
Answer: The IC50 was 239 µM.

Question: And the IC50 (C. lagenarium; [4])?
Answer: Its IC50 is 239 µM.

Question: And the IC50 (B. cinerea)?
Answer: Its IC50 is 243 µM.

Question: And the melting point?
Answer: The melting point was 179.8 to 180.4 °C.

Question: Which results are given for `C=C1CC(c2ccccc2OC(=O)c2ccccc2Br)OC1=O` (stereo not shown) [Compound 5c, 4-[2-(2-Bromobenzoyloxy)phenyl]-2-methylenebutyrolactone]?
Answer: IC50 (C. lagenarium; [1]): 15.9 µM; IC50 (C. lagenarium; [2]): 15.9 µM; IC50 (C. lagenarium; [3]): 15.9 µM; IC50 (C. lagenarium; [4]): 15.9 µM; IC50 (B. cinerea): 34.6 µM; melting point: 204.6 to 205.1 °C

Question: What does the source list for `C=C1CC(c2cccc(OCCC)c2)OC1=O` (stereo not shown) [Compound 6p, 4-(3-Propoxylphenyl)-2-methylenebutyrolactone]?
Answer: IC50 (C. lagenarium; [1]): 266 µM; IC50 (C. lagenarium; [2]): 266 µM; IC50 (C. lagenarium; [3]): 266 µM; IC50 (C. lagenarium; [4]): 266 µM; IC50 (B. cinerea): 298 µM
